Measurements published in US6914045B2, “Glycopeptide antibiotics” (Wyeth Holdings Corporation, priority 2001, dated 2005).
Converted amounts (≈) assume the structure as drawn.

What was measured:
Experiment in all cases: in vitro antibacterial evaluation, MIC by broth dilution
Format in all cases: cell-based
[1] = system: Staphylococcus sp.; details: broth dilution, 18 hours at 35° C.; for MIC Staphylococcus aureus (GC 1131): strain GC 1131; for MIC Staphylococcus aureus (GC 3051): strain GC 3051; for MIC Staphylococcus aureus (GC 3053): strain GC 3053; for MIC Staphylococcus aureus (GC 4542): strain GC 4542; for MIC Staphylococcus aureus (GC 4544): strain GC 4544; for MIC Staphylococcus aureus (GC 4545): strain GC 4545; for MIC Staphylococcus haemolyticus (GC 4546): strain GC 4546; for MIC Coagulase Negative Staphylococcus (GC 4547): strain GC 4547; for MIC Coagulase Negative Staphylococcus (GC 4548): strain GC 4548; for MIC Coagulase Negative Staphylococcus (GC 4549): strain GC 4549; for MIC Coagulase Negative Staphylococcus (GC 4551): strain GC 4551; for MIC Coagulase Negative Staphylococcus (GC 6257): strain GC 6257
Procedure, shortened: (§1)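 Inoculum 5×10^5 CFU/mL; concentrations 64 to 0.06 μg/mL; MIC defined as lowest inhibitory level. Conducted by broth dilution under NCCLS guidelines.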

[2] = system: Enterococcus sp.; details: broth dilution, 18 hours at 35° C.
Procedure, shortened: as §1

[3] = system: Streptococcus sp.; details: broth dilution, 18 hours at 35° C.; for MIC Streptococcus pneumoniae (ATCC 6301): strain ATCC 6301; for MIC Streptococcus pneumoniae (GC 1894): strain GC 1894; for MIC Streptococcus pneumoniae (GC 4565): strain GC 4565
Procedure, shortened: as §1

[4] = system: Escherichia coli; details: for MIC Escherichia coli (ATCC 25922): strain ATCC 25922, 18 hours at 35° C.; for MIC Escherichia coli (GC 4559): strain GC 4559, 18 hours at 35° C.; for MIC Escherichia coli (GC 4560): strain GC 4560, 18 hours at 35° C.
Procedure, shortened: as §1

SMILES: CC(c1ccccc1)C1NC(=O)CNC(=O)C(CO)NC(=O)C(C(O)C2CNC(=N)N2C2OC(CO)C(O)C(O)C2O)NC(=O)C(C(O)C2CNC(=N)N2)NC(=O)C(Cc2ccc(OC3OC(CO)C(OC4OC5COC(c6ccc(C(=O)c7ccccc7)cc6)OC5C(O)C4O)C(O)C3O)cc2)NC1=O (stereo not shown) [Example 173]
- MIC Staphylococcus aureus (GC 1131) ([1]; inoculum 5×10^5 CFU/mL): 2 µg/mL (≈ 1.34 µM)
- MIC Staphylococcus aureus (ATCC 29213) ([1]; strain ATCC 29213): 1 µg/mL (≈ 0.672 µM)
- MIC Staphylococcus aureus (GC 1131) [1]: 2 µg/mL (≈ 1.34 µM)
- MIC Staphylococcus aureus (GC 3051) [1]: 0.5 µg/mL (≈ 0.336 µM)
- MIC Staphylococcus aureus (GC 3053) [1]: 1 µg/mL (≈ 0.672 µM)
- MIC Staphylococcus aureus (GC 4541) ([1]; strain GC 4541): 0.5 µg/mL (≈ 0.336 µM)
- MIC Staphylococcus aureus (GC 4542) [1]: 0.5 µg/mL (≈ 0.336 µM)
- MIC Staphylococcus aureus-SMITH (GC 4543) ([1]; strain GC 4543): 0.5 µg/mL (≈ 0.336 µM)
- MIC Staphylococcus aureus (GC 4544) [1]: 2 µg/mL (≈ 1.34 µM)
- MIC Staphylococcus aureus (GC 4545) [1]: 2 µg/mL (≈ 1.34 µM)
- MIC Staphylococcus haemolyticus (GC 4546) [1]: 1 µg/mL (≈ 0.672 µM)
- MIC Coagulase Negative Staphylococcus (GC 4547) [1]: 2 µg/mL (≈ 1.34 µM)
- MIC Coagulase Negative Staphylococcus (GC 4548) [1]: 0.5 µg/mL (≈ 0.336 µM)
- MIC Coagulase Negative Staphylococcus (GC 4549) [1]: 0.25 µg/mL (≈ 0.168 µM)
- MIC Coagulase Negative Staphylococcus (GC 4551) [1]: 0.5 µg/mL (≈ 0.336 µM)
- MIC Coagulase Negative Staphylococcus (GC 6257) [1]: 0.5 µg/mL (≈ 0.336 µM)
- MIC Enterococcus faecalis (ATCC 29212) ([2]; inoculum 5×10^5 CFU/mL, strain ATCC 29212): 1 µg/mL (≈ 0.672 µM)
- MIC Enterococcus faecalis (GC 2242) ([2]; inoculum 5×10^5 CFU/mL, strain GC 2242): 2 µg/mL (≈ 1.34 µM)
- MIC Enterococcus faecium (GC 2243) ([2]; inoculum 5×10^5 CFU/mL, strain GC 2243): 2 µg/mL (≈ 1.34 µM)
- MIC Enterococcus faecalis (GC 2691) ([2]; inoculum 5×10^5 CFU/mL, strain GC 2691): 2 µg/mL (≈ 1.34 µM)
- MIC Enterococcus faecalis (GC 3059) ([2]; inoculum 5×10^5 CFU/mL, strain GC 3059): 2 µg/mL (≈ 1.34 µM)
- MIC Enterococcus faecalis (GC 4552) ([2]; inoculum 5×10^5 CFU/mL, strain GC 4552): 2 µg/mL (≈ 1.34 µM)
- MIC Enterococcus faecalis (GC 4553) ([2]; inoculum 5×10^5 CFU/mL, strain GC 4553): 2 µg/mL (≈ 1.34 µM)
- MIC Enterococcus faecalis (GC 4554) ([2]; inoculum 5×10^5 CFU/mL, strain GC 4554): 2 µg/mL (≈ 1.34 µM)
- MIC Enterococcus faecium (GC 4556) ([2]; inoculum 5×10^5 CFU/mL, strain GC 4556): 1 µg/mL (≈ 0.672 µM)
- MIC Enterococcus faecium (GC 4557) ([2]; inoculum 5×10^5 CFU/mL, strain GC 4557): 2 µg/mL (≈ 1.34 µM)
- MIC Enterococcus avium (GC 4558) ([2]; inoculum 5×10^5 CFU/mL, strain GC 4558): 1 µg/mL (≈ 0.672 µM)
- MIC Enterococcus faecalis (GC 6189) ([2]; inoculum 5×10^5 CFU/mL, strain GC 6189): 1 µg/mL (≈ 0.672 µM)
- MIC Enterococcus faecalis (ATCC 29212) ([2]; strain ATCC 29212): 1 µg/mL (≈ 0.672 µM)
- MIC Enterococcus faecalis (GC 2242) ([2]; strain GC 2242): 2 µg/mL (≈ 1.34 µM)
- MIC Enterococcus faecium (GC 2243) ([2]; strain GC 2243): 2 µg/mL (≈ 1.34 µM)
- MIC Enterococcus faecalis (GC 2691) ([2]; strain GC 2691): 2 µg/mL (≈ 1.34 µM)
- MIC Enterococcus faecalis (GC 3059) ([2]; strain GC 3059): 2 µg/mL (≈ 1.34 µM)
- MIC Enterococcus faecalis (GC 4552) ([2]; strain GC 4552): 2 µg/mL (≈ 1.34 µM)
- MIC Enterococcus faecalis (GC 4553) ([2]; strain GC 4553): 2 µg/mL (≈ 1.34 µM)
- MIC Enterococcus faecalis (GC 4554) ([2]; strain GC 4554): 2 µg/mL (≈ 1.34 µM)
- MIC Enterococcus faecium (GC 4556) ([2]; strain GC 4556): 1 µg/mL (≈ 0.672 µM)
- MIC Enterococcus faecium (GC 4557) ([2]; strain GC 4557): 2 µg/mL (≈ 1.34 µM)
- MIC Enterococcus avium (GC 4558) ([2]; strain GC 4558): 1 µg/mL (≈ 0.672 µM)
- MIC Enterococcus faecalis (GC 6189) ([2]; strain GC 6189): 1 µg/mL (≈ 0.672 µM)
- MIC Streptococcus pneumoniae (ATCC 6301) ([3]; inoculum 5×10^5 CFU/mL): <0.12 µg/mL
- MIC Streptococcus pneumoniae (GC 1894) ([3]; inoculum 5×10^5 CFU/mL): <0.12 µg/mL
- MIC Streptococcus pyogenes (GC 4563) ([3]; inoculum 5×10^5 CFU/mL, strain GC 4563): <0.12 µg/mL
- MIC Streptococcus agalactiae (GC 4564) ([3]; inoculum 5×10^5 CFU/mL, strain GC 4564): <0.12 µg/mL
- MIC Streptococcus pneumoniae (GC 4565) ([3]; inoculum 5×10^5 CFU/mL): <0.12 µg/mL
- MIC Streptococcus pneumoniae (ATCC 6301) [3]: <0.12 µg/mL
- MIC Streptococcus pneumoniae (GC 1894) [3]: <0.12 µg/mL
- MIC Streptococcus pyogenes (GC 4563) ([3]; strain GC 4563): <0.12 µg/mL
- MIC Streptococcus agalactiae (GC 4564) ([3]; strain GC 4564): <0.12 µg/mL
- MIC Streptococcus pneumoniae (GC 4565) [3]: <0.12 µg/mL
- MIC Escherichia coli (ATCC 25922) [4]: 32 µg/mL (≈ 21.5 µM)
- MIC Escherichia coli (GC 4559) [4]: 16 µg/mL (≈ 10.8 µM)
- MIC Escherichia coli (GC 4560) [4]: 0.5 µg/mL (≈ 0.336 µM)

SMILES: CC(c1ccccc1)C1NC(=O)CNC(=O)C(CO)NC(=O)C(C(O)C2CNC(=N)N2C2OC(CO)C(O)C(O)C2O)NC(=O)C(C(O)C2CNC(=N)N2)NC(=O)C(Cc2ccc(OC3OC(CO)C(OC4OC5COC(c6ccc(C(C)(C)C)cc6)OC5C(O)C4O)C(O)C3O)cc2)NC1=O (stereo not shown) [Example 147]
- MIC Staphylococcus aureus (GC 3051) [1]: 0.5 µg/mL (≈ 0.347 µM)
- MIC Staphylococcus aureus (GC 3053) [1]: 0.5 µg/mL (≈ 0.347 µM)
- MIC Staphylococcus aureus (GC 4542) [1]: 0.5 to 1 µg/mL
- MIC Staphylococcus aureus-SMITH (GC 4543) ([1]; strain GC 4543): 0.5 to 1 µg/mL
- MIC Staphylococcus aureus (GC 4544) [1]: 0.5 to 1 µg/mL
- MIC Staphylococcus aureus (GC 4545) [1]: 0.5 to 1 µg/mL
- MIC Staphylococcus haemolyticus (GC 4546) [1]: 1 to 2 µg/mL
- MIC Coagulase Negative Staphylococcus (GC 4547) [1]: 1 to 2 µg/mL
- MIC Coagulase Negative Staphylococcus (GC 4548) [1]: <0.5 to 1 µg/mL
- MIC Coagulase Negative Staphylococcus (GC 4549) [1]: <0.5 to 1 µg/mL
- MIC Coagulase Negative Staphylococcus (GC 4551) [1]: 1 µg/mL (≈ 0.695 µM)
- MIC Coagulase Negative Staphylococcus (GC 6257) [1]: 2 µg/mL (≈ 1.39 µM)
- MIC Coagulase Negative Staphylococcus (ID-3941) ([1]; strain ID-3941): 1 µg/mL (≈ 0.695 µM)
- MIC Staphylococcus aureus-SMITH (GC 4543) ([1]; strain SMITH GC 4543): 0.5 to 1 µg/mL
- MIC Enterococcus avium (GC 4558) ([2]; Enterococcus avium (GC 4558)): 0.5 to 2 µg/mL
- MIC Enterococcus faecalis (ATCC 29212) ([2]; Enterococcus faecalis (ATCC 29212)): 0.5 to 2 µg/mL
- MIC Enterococcus faecalis (GC 2242) ([2]; Enterococcus faecalis (GC 2242)): 0.5 to 1 µg/mL
- MIC Enterococcus faecalis (GC 2691) ([2]; Enterococcus faecalis (GC 2691)): 0.5 µg/mL (≈ 0.347 µM)
- MIC Enterococcus faecalis (GC 3059) ([2]; Enterococcus faecalis (GC 3059)): 0.5 µg/mL (≈ 0.347 µM)
- MIC Enterococcus faecalis (GC 4552) ([2]; Enterococcus faecalis (GC 4552)): 0.5 to 1 µg/mL
- MIC Enterococcus faecalis (GC 4553) ([2]; Enterococcus faecalis (GC 4553)): 0.5 to 1 µg/mL
- MIC Enterococcus faecalis (GC 4554) ([2]; Enterococcus faecalis (GC 4554)): 0.5 to 1 µg/mL
- MIC Enterococcus faecalis (GC 6189) ([2]; Enterococcus faecalis (GC 6189)): 0.5 µg/mL (≈ 0.347 µM)
- MIC Enterococcus faecium (GC 2243) ([2]; Enterococcus faecium (GC 2243)): 1 to 2 µg/mL
- MIC Enterococcus faecium (GC 4556) ([2]; Enterococcus faecium (GC 4556)): 2 µg/mL (≈ 1.39 µM)
- MIC Enterococcus faecium (GC 4557) ([2]; Enterococcus faecium (GC 4557)): 1 to 2 µg/mL
- MIC Enterococcus faecalis (ATCC 29212) ([2]; strain ATCC 29212): 0.5 to 2 µg/mL
- MIC Enterococcus faecalis (GC 2242) ([2]; strain GC 2242): 0.5 to 1 µg/mL
- MIC Enterococcus faecium (GC 2243) ([2]; strain GC 2243): 1 to 2 µg/mL
- MIC Enterococcus faecalis (GC 2691) ([2]; strain GC 2691): 0.5 µg/mL (≈ 0.347 µM)
- MIC Enterococcus faecalis (GC 3059) ([2]; strain GC 3059): 0.5 µg/mL (≈ 0.347 µM)
- MIC Enterococcus faecalis (GC 4552) ([2]; strain GC 4552): 0.5 to 1 µg/mL
- MIC Enterococcus faecalis (GC 4553) ([2]; strain GC 4553): 0.5 to 1 µg/mL
- MIC Enterococcus faecalis (GC 4554) ([2]; strain GC 4554): 0.5 to 1 µg/mL
- MIC Enterococcus faecium (GC 4556) ([2]; strain GC 4556): 2 µg/mL (≈ 1.39 µM)
- MIC Enterococcus faecium (GC 4557) ([2]; strain GC 4557): 1 to 2 µg/mL
- MIC Enterococcus avium (GC 4558) ([2]; strain GC 4558): 0.5 to 2 µg/mL
- MIC Enterococcus faecalis (GC 6189) ([2]; strain GC 6189): 0.5 µg/mL (≈ 0.347 µM)
- MIC Streptococcus agalactiae (GC 4564) ([3]; Streptococcus agalactiae (GC 4564)): <0.12 µg/mL
- MIC Streptococcus pyogenes (GC 4563) ([3]; Streptococcus pyogenes (GC 4563)): >0.12 µg/mL
- MIC Streptococcus pyogenes (ID-3187) ([3]; Streptococcus pyogenes (ID-3187)): <0.5 µg/mL
- MIC Streptococcus pyogenes (GC 4563) ([3]; strain GC 4563): >0.12 µg/mL
- MIC Streptococcus agalactiae (GC 4564) ([3]; strain GC 4564): <0.12 µg/mL
- MIC Streptococcus pyogenes (ID-3187) ([3]; strain ID-3187): <0.5 µg/mL
- MIC Escherichia coli (ATCC 25922) [4]: 64-64 μg/mL
- MIC Escherichia coli (GC 4559) [4]: 64 µg/mL (≈ 44.5 µM)
- MIC Escherichia coli (GC 4560) [4]: 0.5 to 2 µg/mL
